Assay results published in patent publication US20210188813A1, “EZH2 INHIBITOR AND PHARMACEUTICALLY ACCEPTABLE SALTS AND POLYMORPHIC SUBSTANCES THEREOF, AND APPLICATION OF EZH2 INHIBITOR” (SHANGHAI HAIYAN PHARMACEUTICAL TECHNOLOGY CO., LTD., priority 2018, published 2021).

Tests used:
[1] = Polymorph screening by mixing shaking; assay type: physicochemical; details: mixed crystal forms I to III shaken 1 day at room temperature in different solvents
Description: Mixing shaking test was conducted using different solvent systems. 2 mg of each crystal form of crystal form I to crystal form III was weighed into a glass vial to obtain the mixed crystals, the appropriate amount of organic reagents in Table 6 were added, screwed the cap, and a sealing film was used to prevent the solvent from volatilizing, shaken for 1 days at room temperature and 25 r/min, taken out and centrifuged at 10000 r/min for 10 min at 4° C., the supernatant was poured, and the solid was placed in a oven at 50° C. for drying, the resulting solid was collected and sent for XRPD test.

PRC2 (EZH2-Y641F) = target: T1, PRC2 (EZH2-Y641F) (Homo sapiens, UniProt Q15910, Y641F); assay: In vitro methyltransferase assay; assay type: biochemical
T1 construct: purchased Active motif
Description: Recombinant PRC2 (EZH2-Y641F) was purchased from Active motif, S-adenosyl-methionin chloride (SAM) and Poly-L-lysine (PLL) were purchased from Sigma-Aldrich, H3(1-50)K27me1 peptide was purchased from Cisbio. LANCEUltra (Perkinelmer) system was used for detection. For the enzyme activity test, tested compounds are 1:3 diluted for 8-points, and added into each well, then 100 ng enzyme is added. And then the buffer [20 mM Tris pH8.5, 2 mM MgCl2, 0.01% Tween-20, 1 mM TCEP] containing […]/250 nM H3 (1-50)K27me1 premixtures are added. After 3 hours enzyme reaction at RT, the premixed detection buffer (PLL, Europium antibody and Ulight) is added, and react for 1 h at RT, then read fluorescence on Tecan infinite pro. IC50s are counted by XLfit using a four-parameter model.

Pfeiffer cells = assay: Cell proliferation assay, Pfeiffer; assay type: cell-based; details: Homo sapiens, Pfeiffer, 144 h; 6 days' growth, cell counting kit-8
Description: Cell lines Pfeiffer (CRL-2632), suDHL-6 (CRL-2959) and suDHL-10 (CRL-2963) were obtained from ATCC. All cell lines were cultured in RPMI-1640 medium (Gibco) plus 10% FBS (Gibco). Cells are harvested by centrifuge and densities are determined using a CounterStar cell counter. Appropriate number of cells are plated in a96-well culture plate and pre-incubate overnight. Tested compounds are 1:3 diluted for 8-points and added into each well. After 6 days' growth, cell counting kit-8 (Dojindo) is used to detect cell viability and read on Tecan infinite pro. IC50s are counted by XLfit using a four-parameter model.

T1 sequence (Q15910 whole entry Y641F): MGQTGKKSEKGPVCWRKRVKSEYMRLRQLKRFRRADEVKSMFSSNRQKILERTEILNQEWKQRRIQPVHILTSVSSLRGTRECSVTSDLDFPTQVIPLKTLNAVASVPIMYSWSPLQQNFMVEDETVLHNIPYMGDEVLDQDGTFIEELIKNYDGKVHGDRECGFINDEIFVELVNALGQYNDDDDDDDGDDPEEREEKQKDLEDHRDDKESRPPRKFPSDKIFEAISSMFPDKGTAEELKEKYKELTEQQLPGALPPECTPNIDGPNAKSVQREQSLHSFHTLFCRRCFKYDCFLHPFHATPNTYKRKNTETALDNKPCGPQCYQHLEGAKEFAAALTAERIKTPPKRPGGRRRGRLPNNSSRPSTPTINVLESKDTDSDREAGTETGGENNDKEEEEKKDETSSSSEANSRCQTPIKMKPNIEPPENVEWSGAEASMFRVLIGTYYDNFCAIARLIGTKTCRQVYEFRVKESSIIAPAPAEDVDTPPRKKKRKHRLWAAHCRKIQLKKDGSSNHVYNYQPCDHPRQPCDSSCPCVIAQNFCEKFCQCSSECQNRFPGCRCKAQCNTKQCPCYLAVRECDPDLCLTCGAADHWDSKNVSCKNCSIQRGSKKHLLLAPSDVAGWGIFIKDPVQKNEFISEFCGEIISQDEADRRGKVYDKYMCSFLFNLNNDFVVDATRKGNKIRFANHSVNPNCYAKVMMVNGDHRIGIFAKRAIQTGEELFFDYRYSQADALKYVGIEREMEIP
T1 sequence (O75530 whole entry partner): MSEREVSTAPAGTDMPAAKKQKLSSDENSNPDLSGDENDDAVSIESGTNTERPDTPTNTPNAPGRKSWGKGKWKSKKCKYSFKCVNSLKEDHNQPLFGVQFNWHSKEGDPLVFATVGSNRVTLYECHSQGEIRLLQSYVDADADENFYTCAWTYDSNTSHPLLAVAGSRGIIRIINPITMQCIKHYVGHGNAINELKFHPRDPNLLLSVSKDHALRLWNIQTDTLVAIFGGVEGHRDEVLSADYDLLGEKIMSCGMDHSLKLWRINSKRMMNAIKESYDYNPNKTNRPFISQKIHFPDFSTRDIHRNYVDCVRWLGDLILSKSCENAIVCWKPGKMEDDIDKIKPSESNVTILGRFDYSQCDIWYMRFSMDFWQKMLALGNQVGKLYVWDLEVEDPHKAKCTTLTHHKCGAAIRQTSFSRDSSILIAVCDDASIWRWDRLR
T1 sequence (Q15022 whole entry partner): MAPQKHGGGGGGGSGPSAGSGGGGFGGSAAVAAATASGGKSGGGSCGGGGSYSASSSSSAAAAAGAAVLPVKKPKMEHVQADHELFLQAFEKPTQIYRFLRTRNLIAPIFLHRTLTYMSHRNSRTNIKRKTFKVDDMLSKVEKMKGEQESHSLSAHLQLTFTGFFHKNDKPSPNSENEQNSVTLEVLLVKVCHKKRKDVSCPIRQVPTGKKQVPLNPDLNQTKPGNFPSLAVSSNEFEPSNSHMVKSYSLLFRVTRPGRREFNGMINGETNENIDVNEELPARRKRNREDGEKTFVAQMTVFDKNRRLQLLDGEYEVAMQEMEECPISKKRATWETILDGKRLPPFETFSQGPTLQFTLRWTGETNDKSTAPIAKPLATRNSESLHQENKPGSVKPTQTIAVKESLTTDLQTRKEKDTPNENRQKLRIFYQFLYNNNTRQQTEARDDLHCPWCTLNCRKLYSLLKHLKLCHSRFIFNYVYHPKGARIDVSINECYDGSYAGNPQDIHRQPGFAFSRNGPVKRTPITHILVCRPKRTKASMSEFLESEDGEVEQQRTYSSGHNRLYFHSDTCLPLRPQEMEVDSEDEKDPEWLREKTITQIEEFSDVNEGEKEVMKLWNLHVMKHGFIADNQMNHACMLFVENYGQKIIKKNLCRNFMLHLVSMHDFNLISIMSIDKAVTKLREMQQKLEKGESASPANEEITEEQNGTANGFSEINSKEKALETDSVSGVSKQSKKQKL
T1 sequence (Q09028 whole entry partner): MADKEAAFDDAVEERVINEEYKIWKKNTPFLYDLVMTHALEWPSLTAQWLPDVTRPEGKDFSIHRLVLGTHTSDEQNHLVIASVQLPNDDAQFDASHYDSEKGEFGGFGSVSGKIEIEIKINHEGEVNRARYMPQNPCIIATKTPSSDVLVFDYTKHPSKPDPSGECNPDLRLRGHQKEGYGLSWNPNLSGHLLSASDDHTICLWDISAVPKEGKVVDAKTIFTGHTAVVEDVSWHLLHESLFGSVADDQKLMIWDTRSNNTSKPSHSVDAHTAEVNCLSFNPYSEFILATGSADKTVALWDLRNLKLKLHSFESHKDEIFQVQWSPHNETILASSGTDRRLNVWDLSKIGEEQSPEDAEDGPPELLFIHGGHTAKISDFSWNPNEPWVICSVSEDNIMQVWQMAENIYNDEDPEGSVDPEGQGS
T1 sequence (Q6ZN18 whole entry partner): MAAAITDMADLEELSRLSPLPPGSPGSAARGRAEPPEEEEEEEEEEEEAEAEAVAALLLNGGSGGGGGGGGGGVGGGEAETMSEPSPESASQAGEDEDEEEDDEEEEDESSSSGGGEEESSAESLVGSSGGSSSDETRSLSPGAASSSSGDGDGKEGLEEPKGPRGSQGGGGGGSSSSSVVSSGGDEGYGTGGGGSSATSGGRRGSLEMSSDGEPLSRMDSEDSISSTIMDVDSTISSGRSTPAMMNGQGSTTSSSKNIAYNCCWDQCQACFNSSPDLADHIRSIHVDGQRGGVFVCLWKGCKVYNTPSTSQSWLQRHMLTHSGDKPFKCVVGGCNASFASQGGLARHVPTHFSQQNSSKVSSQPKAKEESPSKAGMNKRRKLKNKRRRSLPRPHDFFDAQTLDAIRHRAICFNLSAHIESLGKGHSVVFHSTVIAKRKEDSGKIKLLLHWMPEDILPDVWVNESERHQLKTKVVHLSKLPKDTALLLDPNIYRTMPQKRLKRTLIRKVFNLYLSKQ

IC50 (PRC2 (EZH2-Y641F)) [µM] | Structure (SMILES) | stability of crystal form [1] | IC50 (Pfeiffer cells) [µM]
– | CCc1c(C(=O)NCc2c(C)cc(C)[nH]c2=O)cc2c(cnn2C)c1N(CC)[C@H]1CC[C@H](N2CC(OC)C2)CC1 [Crystal form V] | stable crystal form | –
> 10 | CCN(c1cc(C(=O)NCc2c(C)cc(C)[nH]c2=O)c(C)c2c1cnn2C)C1CCOCC1 [D1, N-((4,6-dimethyl-2-oxo-1,2-dihydropyridin-3-yl)methyl)-4-(ethyl (tetrahydro-2H-pyran-4-yl)amino)-1,7-dimethyl-1H-indazole-6-carboxamide] | – | > 10
